The results in this text go back to article PMC8235719, “New RAD51 Inhibitors to Target Homologous Recombination in Human Cells” (Genes, 2021).

The IC50 is the concentration at which inhibition is half-maximal. As usually defined, the Kd is the equilibrium constant for the complex coming apart.

Molecules are shown by their SMILES.

Assay [1] relates to HR in human U-2 OS IndDR-GFP cells. Description: Inducible I-SceI DR-GFP assay (IndDR-GFP), inhibition of HR. Type of assay: cell-based. As to the method:
Exponentially growing U-2 OS IndDR-GFP cells were seeded at a density of 2 × 10^5 cells/well into 6-well plates with DMEM media containing 80 µg/mL G418 and indicated concentrations of RAD51i(s). For I-SceI induced samples, the media were supplemented with 0.5 µM Shield1 (Clontech, Mountain View, CA, USA) with 100 nM triamcinolone acetonide (Sigma, St. Louis, MO, USA). After 24 h of incubation, the media were removed, cells were washed with the DMEM, and the incubation continued for 48 h in DMEM containing 100 units/mL penicillin, 100 µg/mL streptomycin, and 80 µg/mL G418. Then, cells were trypsinized, trypsin solution was neutralized with an equal volume of media, and 10% formaldehyde solution in PBS was added for fixation to reach a final concentration of formaldehyde of 3.3%. The yield of GFP-positive cells indicative of HR activity was measured by flow cytometry with the Guava easyCyte system, and the data were analyzed with the InCyte program (Millipore; Burlington, VT, USA).

The next assay addresses T1, HsRAD51 (Homo sapiens, UniProt Q06609).
T1 sequence (Q06609 1-339): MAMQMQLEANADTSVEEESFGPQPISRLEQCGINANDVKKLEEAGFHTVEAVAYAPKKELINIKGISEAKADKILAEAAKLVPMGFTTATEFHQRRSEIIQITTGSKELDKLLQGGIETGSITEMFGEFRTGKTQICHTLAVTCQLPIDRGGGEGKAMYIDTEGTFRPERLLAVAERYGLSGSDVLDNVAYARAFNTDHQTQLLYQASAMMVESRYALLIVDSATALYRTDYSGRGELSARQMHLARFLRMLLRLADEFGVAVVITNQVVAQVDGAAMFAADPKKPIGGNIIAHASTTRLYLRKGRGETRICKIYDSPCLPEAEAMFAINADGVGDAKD
In words: Surface plasmon resonance (SPR) binding to immobilized RAD51. The note with it: 25 °C, equilibrium analysis, ± SD, read-out: KD, equilibrium dissociation constant of direct binding to hRAD51. As to the method:
The binding of RAD51i to RAD51 was examined using a ProteOn XPR36 SPR Protein Interaction Array System (Bio-Rad, Hercules, CA, USA) at 25 °C. ProteOn GLH sensor chips were preconditioned with two 10 s pulses of 50 mM NaOH, 100 mM HCl, and 0.5% SDS followed by the system equilibration with the running buffer (20 mM sodium phosphate, 150 mM NaCl, and 0.005% Tween 20, pH 7.4). The surface of a GLH sensorchip was subsequently activated with a 1:100 dilution of a 1:1 mixture of 0.2 M EDC and 0.05 M Sulfo-NHS. Purified HsRAD51 was diluted to 500 µg/mL in 10 mM sodium acetate, pH 5.5, and injected immediately after chip activation across the ligand flow channels at 30 µL/min for 5 min. Unreacted protein was washed out, and the excess of unreacted ester groups on the sensor surface was capped by an injection of 1 M ethanolamine-HCl, pH 8.0, at 5 µL/min for 5 min. A reference surface to correct for nonspecific binding was similarly created by immobilizing an IgG b12 anti-HIV-1 gp120 antibody (IgG b12 anti-HIV-1 gp120; was obtained through the NIH AIDS Reagent Program, Division of AIDS, NIAID, NIH: Anti-HIV-1 gp120 Monoclonal (IgG1 b12) from Drs. Dennis Burton and Carlos Barbas). Serial dilutions of the compounds were prepared in the running buffer supplemented with 8% DMSO and injected at a flow rate of 100 μL/min for a 1 min association phase, followed by a 5 min dissociation phase using the “one-shot kinetics” functionality of the ProteOn instrument. Data were analyzed with ProteOn Manager Software version 3.0 (Bio-Rad; Hercules, CA, USA). The responses from the reference flow cell were subtracted to account for the non-specific binding and injection artifacts. Experiments were repeated at least three times. The equilibrium dissociation constants (KD) for the interactions were calculated in ProteOn Manager Version 3.1.0.6 (Bio-Rad; Hercules, CA, USA) using the equilibrium analysis function.

The next assay has as its system MCF 10A cells. Description: Cell cycle analysis (propidium iodide flow cytometry). The note with it: 24 h. Type of assay: cell-based, human. Here is the method: Exponentially growing MDA-MB-231 and MCF 10A cells were seeded into 6-well plates at a density of 1.5 × 10^5 cells/well in the presence of indicated concentrations of B02-iso or 0.01% DMSO (for control cells). After 24 h of incubation, cells were harvested, placed on ice, and washed once with cold PBS. Cells were counted with an automated cell counter (Bio-Rad; Hercules, CA, USA), and 1 × 10^5 cells from each sample were taken for further analysis. Cells were resuspended in PBS, and then cold, absolute ethanol was added dropwise to a cell suspension to reach a final concentration of 70%, followed by incubation on ice for 1 h. Cells were washed in PBS, resuspended in staining buffer (50 µg/mL propidium iodide, 100 µg/mL RNase A, 0.1% Triton X-100 in PBS) and incubated for 15 min in the dark at 37 °C. Cells were analyzed for DNA content by flow cytometry using the Guava easyCyte system (Millipore; Burlington, VT, USA) with the InCyte software (Millipore; Burlington, VT, USA).
Background: In flow cytometry, cells or beads pass a laser one at a time.

As to `O=c1nc(/C=C/c2cccnc2)n(Cc2ccccc2)c2ccccc12` [B02-iso], the IC50 in assay [1] (Homo sapiens, U2OS, U-2 OS IndDR-GFP cells, 24 h with compound, ± SD, read-out: IC50, efficiency of HR inhibition in IndDR-GFP assay) was found to be 4.3 ± 0.75 µM. For the same molecule, in assay [1] (IndDR-GFP IC50 of B02-iso vs B02), the “Improvement of potency (HR inhibition) versus B02” value is on record as “approximately four-fold”. In addition, the Kd at HsRAD51 was found to be 14.6 ± 6.2 µM. For the same molecule, in the assay with MCF 10A cells, the Cell cycle effect result is listed as “prominent G1 arrest”.
